Measurements from patent publication US10105357B2, “Indication of antibiotic drugs for preparation of cancer inhibition pharmaceutical composition” (LAUNX BIOMEDICAL CO., LTD., priority 2014, dated 2018).
Read-outs that look alike come from different tables or passages of the source.

How the values were obtained:
Format in all cases: cell-based, human
cancer cell lines = assay: Cell viability analysis (WST-1) on cancer cell lines; conditions: drug 10 μM, 72 hours, WST-1; Table 3
[1] = tested on: HI650 (Lung Adenocarcinoma); assay: Cell viability analysis, lung cancer HI650; conditions: Homo sapiens, NCI-H1650, 72 h
[2] = tested on: A549 (Lung Adenocarcinoma); assay: Cell viability analysis, lung cancer A549; conditions: Homo sapiens, A549, 72 h
[3] = tested on: AGS (Gastric Adenocarcinoma); assay: Cell viability analysis, gastric cancer AGS; conditions: Homo sapiens, 72 h
[4] = tested on: MKN-45 (Gastric Adenocarcinoma); assay: Cell viability analysis, gastric cancer MKN-45; conditions: Homo sapiens, MKN-45, 72 h
[5] = tested on: HepG2 (Hepatocellular Carcinoma); assay: Cell viability analysis, hepatic cancer HepG2; conditions: Homo sapiens, HepG2, 72 h
[6] = tested on: LoVo (Colorectal Adenocarcinoma); assay: Cell viability analysis, colon cancer LoVo; conditions: Homo sapiens, LoVo, 72 h, read-out: cell viability (survival rate), LoVo, drug 10 μM, 72 hours, WST-1, OD450 nm
[7] = tested on: A375 (Amelanotic Melanoma); assay: Cell viability analysis, skin cancer A375; conditions: Homo sapiens, A-375, 72 h
[8] = tested on: HeLa (Cervix Adenocarcinoma); assay: Cell viability analysis, cervical cancer HeLa; conditions: Homo sapiens, HeLa, 72 h
[9] = tested on: PC3 (p53−) (Prostate Adenocarcinoma); assay: Cell viability analysis, prostate cancer PC3; conditions: Homo sapiens, 72 h
[10] = tested on: TSGH-8301 (Urinary Bladder Carcinoma); assay: Cell viability analysis, bladder cancer TSGH-8301; conditions: Homo sapiens, 72 h
[11] = tested on: MCF7 (Mammary Gland, Adenocarcinoma); assay: Cell viability analysis, breast cancer MCF7; conditions: Homo sapiens, MCF7, 72 h
[12] = tested on: HL-60 (Acute Promyelocytic Leukemia); assay: Cell viability analysis, leukemia HL-60; conditions: Homo sapiens, HL-60, 72 h
[13] = read-out: cell viability (survival rate), H1650, drug 10 μM, 72 hours, WST-1, OD450 nm
[14] = read-out: cell viability (survival rate), A549, drug 10 μM, 72 hours, WST-1, OD450 nm
[15] = read-out: cell viability (survival rate), AGS, drug 10 μM, 72 hours, WST-1, OD450 nm
[16] = read-out: cell viability (survival rate), MKN-45, drug 10 μM, 72 hours, WST-1, OD450 nm
[17] = read-out: cell viability (survival rate), HepG2, drug 10 μM, 72 hours, WST-1, OD450 nm
[18] = read-out: cell viability (survival rate), A375, drug 10 μM, 72 hours, WST-1, OD450 nm
[19] = read-out: cell viability (survival rate), HeLa, drug 10 μM, 72 hours, WST-1, OD450 nm
[20] = read-out: cell viability (survival rate), PC3, drug 10 μM, 72 hours, WST-1, OD450 nm
[21] = read-out: cell viability (survival rate), TSGH, drug 10 μM, 72 hours, WST-1, OD450 nm
[22] = read-out: cell viability (survival rate), MCF7, drug 10 μM, 72 hours, WST-1, OD450 nm
[23] = read-out: cell viability (survival rate), HL-60, drug 10 μM, 72 hours, WST-1, OD450 nm

## CC(=O)S[C@@H]1CC2=CC(=O)CC[C@]2(C)[C@H]2CC[C@@]3(C)[C@@H](CC[C@@]34CCC(=O)O4)[C@H]12 [Spironolactone]
Cancer cell lines
  inhibition effect on different cancer cell lines: significant inhibition effect
[1]; [13]
  viability at 10 µM: 79.8%
[2]; [14]
  viability at 10 µM: 67.5%
[3]; [15]
  viability at 10 µM: 96.6%
[4]; [16]
  viability at 10 µM: 117%
[5]; [17]
  viability at 10 µM: 90.5%
[6]
  viability at 10 µM: 67.2%
[7]; [18]
  viability at 10 µM: 61%
[8]; [19]
  viability at 10 µM: 118%
[9]; [20]
  viability at 10 µM: 88.5%
[10]; [21]
  viability at 10 µM: 90.1%
[11]; [22]
  viability at 10 µM: 87.7%
[12]; [23]
  viability at 10 µM: 57.2%

## CO/N=C(\C(=O)N[C@@H]1C(=O)N2C(C(=O)OCOC(=O)C(C)(C)C)=C(/C=C\c3scnc3C)CS[C@H]12)c1csc(N)n1 [Cefditoren pivoxil]
Cancer cell lines
  inhibition effect on different cancer cell lines: significant inhibition effect
[1]; drug 10 μM, 72 hours, WST-1, OD450 nm, read-out: cell viability (survival rate), H1650
  viability at 10 µM: 80.7%
[2]; drug 10 μM, 72 hours, WST-1, OD450 nm, read-out: cell viability (survival rate), A549
  viability at 10 µM: 45.7%
[3]; drug 10 μM, 72 hours, WST-1, OD450 nm, read-out: cell viability (survival rate), AGS
  viability at 10 µM: 86.5%
[4]; drug 10 μM, 72 hours, WST-1, OD450 nm, read-out: cell viability (survival rate), MKN-45
  viability at 10 µM: 70.5%
[5]; drug 10 μM, 72 hours, WST-1, OD450 nm, read-out: cell viability (survival rate), HepG2
  viability at 10 µM: 96.9%
[6]
  viability at 10 µM: 83.5%
[7]; drug 10 μM, 72 hours, WST-1, OD450 nm, read-out: cell viability (survival rate), A375
  viability at 10 µM: 69.1%
[8]; drug 10 μM, 72 hours, WST-1, OD450 nm, read-out: cell viability (survival rate), HeLa
  viability at 10 µM: 58.7%
[9]; drug 10 μM, 72 hours, WST-1, OD450 nm, read-out: cell viability (survival rate), PC3
  viability at 10 µM: 83.9%
[10]; drug 10 μM, 72 hours, WST-1, OD450 nm, read-out: cell viability (survival rate), TSGH
  viability at 10 µM: 94.8%
[11]; drug 10 μM, 72 hours, WST-1, OD450 nm, read-out: cell viability (survival rate), MCF7
  viability at 10 µM: 38.4%
[12]; drug 10 μM, 72 hours, WST-1, OD450 nm, read-out: cell viability (survival rate), HL-60
  viability at 10 µM: 110%

## C[C@]12C=CC(=O)C=C1CC[C@@H]1[C@@H]2[C@@H](O)C[C@@]2(C)[C@H]1CC[C@]2(O)C(=O)CO [Prednisolone (Hydroretrocortine), Prednisolone]
Cancer cell lines
  inhibition effect on different cancer cell lines: significant inhibition effect
[1]; [13]
  viability at 10 µM: 82.5%
[2]; [14]
  viability at 10 µM: 71.3%
[3]; [15]
  viability at 10 µM: 124%
[4]; [16]
  viability at 10 µM: 67.8%
[5]; [17]
  viability at 10 µM: 82.7%
[6]
  viability at 10 µM: 92.5%
[7]; [18]
  viability at 10 µM: 71%
[8]; [19]
  viability at 10 µM: 78.7%
[9]; [20]
  viability at 10 µM: 83.3%
[10]; [21]
  viability at 10 µM: 86.2%
[11]; [22]
  viability at 10 µM: 45.5%
[12]; [23]
  viability at 10 µM: 99%

## Nc1nc(O)c2ncn(COC(CO)CO)c2n1 [Ganciclovir]
Cancer cell lines
  inhibition effect on different cancer cell lines: significant inhibition effect
[1]; [13]
  viability at 10 µM: 97.3%
[2]; [14]
  viability at 10 µM: 104%
[3]; [15]
  viability at 10 µM: 106%
[4]; [16]
  viability at 10 µM: 87%
[5]; [17]
  viability at 10 µM: 109%
[6]
  viability at 10 µM: 99.9%
[7]; [18]
  viability at 10 µM: 94.8%
[8]; [19]
  viability at 10 µM: 107%
[9]; [20]
  viability at 10 µM: 71.8%
[10]; [21]
  viability at 10 µM: 103%
[11]; [22]
  viability at 10 µM: 68.6%
[12]; [23]
  viability at 10 µM: 98.7%

## NCCS(=O)(=O)O [Taurine]
Cancer cell lines
  inhibition effect on different cancer cell lines: significant inhibition effect
[1]; [13]
  viability at 10 µM: 46.1%
[2]; [14]
  viability at 10 µM: 84%
[3]; [15]
  viability at 10 µM: 64.1%
[4]; [16]
  viability at 10 µM: 61.6%
[5]; [17]
  viability at 10 µM: 93.1%
[6]
  viability at 10 µM: 98.5%
[7]; [18]
  viability at 10 µM: 77.6%
[8]; [19]
  viability at 10 µM: 84.9%
[9]; [20]
  viability at 10 µM: 61.1%
[10]; [21]
  viability at 10 µM: 110%
[11]; [22]
  viability at 10 µM: 91.5%
[12]; [23]
  viability at 10 µM: 116%

## CC1(C)S[C@@H]2[C@H](NC(=O)C(C(=O)O)c3ccccc3)C(=O)N2[C@H]1C(=O)O (stereo partly drawn) [Carbenicillin disodium]
Cancer cell lines
  inhibition effect on different cancer cell lines: significant inhibition effect
[1]; [13]
  viability at 10 µM: 76.2%
[2]; [14]
  viability at 10 µM: 53.5%
[3]; [15]
  viability at 10 µM: 62.9%
[4]; [16]
  viability at 10 µM: 84.3%
[5]; [17]
  viability at 10 µM: 88.9%
[6]
  viability at 10 µM: 86.2%
[7]; [18]
  viability at 10 µM: 70.2%
[8]; [19]
  viability at 10 µM: 77.8%
[9]; [20]
  viability at 10 µM: 84.4%
[10]; [21]
  viability at 10 µM: 84.3%
[11]; [22]
  viability at 10 µM: 59%
[12]; [23]
  viability at 10 µM: 114%
